This note sets out measurements from PubChem BioAssay (NCI).

“And” between values parts separate entries of the source, which are not always exact repeats. Equal values may be shown once.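 Dose response: 5 concentrations. Exposure: 48 h. Format: 96-well plates. Endpoint: linear interpolation; highest concentration if not reached. GI50: concentration for 50% inhibition of growth. Definition used: TGI = concentration required for complete inhibition of growth.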

Among the test systems are EKVX NSCLC; SK-OV-3 ovarian; SF-295 CNS; HCT-15 colon; SNB-19 CNS; 786-0 renal; HOP-62 NSCLC; SR leukemia; MCF7 breast; BT-549 breast.
Common to all, as to assay: NCI tumour cell line growth inhibition, 48 h

In the case of `CSc1cc(C(C)(C)C)ccc1C(O)c1ccc(C(C)(C)C)cc1SC`, the TGI was 21.2 µM with EKVX NSCLC; 32.2 µM with SK-OV-3 ovarian; 22.6 µM in the assay on SF-295 CNS; 29.9 µM in the assay with HCT-15 colon; 34.3 µM with SNB-19 CNS; 22.7 µM in the assay on 786-0 renal. Also, the values for the TGI in the assay on HOP-62 NSCLC and in the assay with SR leukemia were 27.3 µM and 32.2 µM, respectively.
In the case of `c1ccc(/C(=N\Nc2nc3ccccc3s2)c2ccccn2)cc1`, the TGI was 15.4 µM in the assay with EKVX NSCLC; 98.6 µM with SK-OV-3 ovarian; more than 100 µM with SF-295 CNS; more than 72.5 µM in the assay on MCF7 breast; more than 100 µM with HCT-15 colon; more than 100 µM with SNB-19 CNS. For the same compound, the values for the TGI with 786-0 renal, with HOP-62 NSCLC and with BT-549 breast were 24.4 µM, 97.8 µM and more than 100 µM, respectively.
As for `CCOP(=O)(OCC)C(NC(c1ccccc1)c1ccccc1)c1ccc(C(C)C)cc1` (centres undefined), the GI50 in the assay on EKVX NSCLC was 6.01 µM; with SK-OV-3 ovarian, 13.2 µM; in the assay on SF-295 CNS, 2.92 µM; with MCF7 breast, 3.06 µM; in the assay on HCT-15 colon it was 3.22 µM; with SNB-19 CNS it was 26.6 µM. The values for the GI50 in the assay with 786-0 renal, in the assay with HOP-62 NSCLC and in the assay on BT-549 breast were 5.6 µM, 6.08 µM and 6.8 µM, respectively. For the same compound, the TGI in the assay on EKVX NSCLC is 20.4 µM; with SK-OV-3 ovarian, 34.7 µM; in the assay on SF-295 CNS, 11.7 µM; with MCF7 breast, 11.4 µM; with HCT-15 colon it was 13.1 µM; with SNB-19 CNS, more than 100 µM. Besides, the TGI came out at 18.9 µM in the assay on 786-0 renal, 18.8 µM with HOP-62 NSCLC and 28.9 µM in the assay with BT-549 breast.
As for `N#CC(C#N)=C1CCC2C(=C(C#N)C#N)CCC12` (centres undefined), the TGI in the assay on EKVX NSCLC, in the assay on SK-OV-3 ovarian, with SF-295 CNS, in the assay on HCT-15 colon, in the assay with SNB-19 CNS and with 786-0 renal was more than 100 µM in each case. In addition, the TGI in the assay on HOP-62 NSCLC and with SR leukemia was more than 100 µM in each case.
Take `CC1(C)CC[C@]2(CO)CC[C@]3(C)C(=CC[C@@H]4[C@@]5(C)CCNCC(C)(C)[C@@H]5CC[C@]43C)[C@@H]2C1`: the GI50 was 9.55 µM with EKVX NSCLC; 13.5 µM in the assay on SK-OV-3 ovarian; 1.93 µM with SF-295 CNS; 3.07 µM in the assay with MCF7 breast; 2.16 µM in the assay with HCT-15 colon; 12.8 µM in the assay with SNB-19 CNS. In addition, the GI50 in the assay on 786-0 renal is 3.8 µM; with HOP-62 NSCLC, 3.65 µM; in the assay on BT-549 breast it was 4.79 µM. The TGI in the assay with EKVX NSCLC was determined as 23.2 µM; in the assay on SK-OV-3 ovarian it was 26.8 µM; in the assay on SF-295 CNS, 3.97 µM; in the assay with MCF7 breast it was 13.3 µM; in the assay with HCT-15 colon it was 6.26 µM; with SNB-19 CNS it was 26.8 µM. The figures for the TGI with 786-0 renal, with HOP-62 NSCLC and with BT-549 breast were 15 µM, 15.3 µM and 18.3 µM, respectively.
Turning to `COc1cc(/C=C/c2ccnc3ccccc23)cc(OC)c1OC`, the GI50 is 6.27 µM with EKVX NSCLC; 5.68 µM in the assay with SK-OV-3 ovarian; 3.12 µM in the assay on SF-295 CNS; 2.35 µM in the assay on MCF7 breast; 1.92 µM in the assay on HCT-15 colon; 6.71 µM in the assay with SNB-19 CNS. For the same compound, the GI50 with 786-0 renal was 4.42 µM; in the assay on HOP-62 NSCLC, 5.87 µM; in the assay with SR leukemia it was 0.755 µM. For the same compound, the TGI with EKVX NSCLC was more than 100 µM; with SK-OV-3 ovarian, 46.4 µM and 40.3 µM; in the assay with SF-295 CNS, > 100 µM and 53 µM; in the assay with MCF7 breast, 25.2 µM and > 100 µM; with HCT-15 colon, > 100 µM and 70.1 µM; in the assay on SNB-19 CNS it was 42.1 µM and > 100 µM. Moreover, the TGI was 28.2 µM and 61.6 µM with 786-0 renal; 37.7 µM and > 100 µM with HOP-62 NSCLC.
Regarding `CC(=O)[CH-]C(=O)c1ccccc1.CC(=O)[CH-]C(=O)c1ccccc1.CC(=O)[CH-]C(=O)c1ccccc1.[Br-].[Zr+4]`, the GI50 in the assay with EKVX NSCLC was 57.5 µM; in the assay with SK-OV-3 ovarian it was 74.8 µM; in the assay with SF-295 CNS, 33.8 µM; in the assay on HCT-15 colon, 89.7 µM; in the assay on 786-0 renal, 67.1 µM; in the assay with HOP-62 NSCLC it was 64 µM. For the same compound, the TGI in the assay with EKVX NSCLC, in the assay with SK-OV-3 ovarian, in the assay on SF-295 CNS, with HCT-15 colon, with 786-0 renal and in the assay with HOP-62 NSCLC was more than 100 µM throughout.
In the case of `CCOC(=O)c1cc(C(=O)c2cc(OC)c(OC)c(OC)c2)n2ccc(-c3cc[n+](CC(=O)c4cc(OC)c(OC)c(OC)c4)cc3)cc12`, the GI50 is 2.64 µM in the assay on EKVX NSCLC; 19.6 µM with SK-OV-3 ovarian; 2.62 µM in the assay on HCT-15 colon; 1.75 µM in the assay with 786-0 renal; 1.98 µM in the assay with BT-549 breast. Also, the TGI in the assay on EKVX NSCLC was determined as 10.3 µM; in the assay with SK-OV-3 ovarian it was 47.1 µM; in the assay on HCT-15 colon it was 7.93 µM; in the assay with 786-0 renal, 3.39 µM; in the assay with BT-549 breast it was 4.49 µM.
Turning to `FC(F)(F)c1nc(Br)[nH]c1C(F)(F)F`, the TGI in the assay on EKVX NSCLC, in the assay on SK-OV-3 ovarian, in the assay on SF-295 CNS, in the assay with HCT-15 colon, in the assay on SNB-19 CNS and in the assay with 786-0 renal was more than 100 µM each time. For the same compound, the TGI in the assay on HOP-62 NSCLC is 91.9 µM; in the assay on SR leukemia it was more than 100 µM.
In the case of `C=C1C(C(=O)O)C1C(=O)O` (centres undefined), the TGI in the assay on EKVX NSCLC, in the assay on SK-OV-3 ovarian, in the assay on SF-295 CNS, with HCT-15 colon, in the assay on SNB-19 CNS and in the assay on 786-0 renal was more than 100 µM each time. The TGI in the assay with HOP-62 NSCLC and in the assay on SR leukemia was more than 100 µM in each case.
In the case of `COc1cc(NCCC2CCCCN2)c2ncccc2c1OC` (centres undefined), the GI50 was 15.6 µM in the assay on EKVX NSCLC; 20.3 µM with SK-OV-3 ovarian; 10.4 µM with SF-295 CNS; 3.19 µM with MCF7 breast; 21.2 µM in the assay with HCT-15 colon; 18.7 µM in the assay with SNB-19 CNS. Besides, the GI50 with 786-0 renal was 14.5 µM; with HOP-62 NSCLC it was 17.3 µM; in the assay with BT-549 breast, 19.9 µM. The TGI worked out at 48.6 µM in the assay on EKVX NSCLC; 38.9 µM in the assay with SK-OV-3 ovarian; 31 µM with SF-295 CNS; 15.2 µM with MCF7 breast; 85.5 µM in the assay with HCT-15 colon; 42.3 µM in the assay on SNB-19 CNS. The TGI in the assay with 786-0 renal turned out to be 36.9 µM; with HOP-62 NSCLC, 32.4 µM; in the assay with BT-549 breast, 34.8 µM.
Take `c1ccc2c(c1)[nH]c1c3ccccc3sc21`: the TGI in the assay with EKVX NSCLC, in the assay on SK-OV-3 ovarian, in the assay with SF-295 CNS, in the assay with MCF7 breast, in the assay on HCT-15 colon and with SNB-19 CNS was more than 100 µM each time. Further, the TGI in the assay on 786-0 renal, in the assay on HOP-62 NSCLC and with SR leukemia was more than 100 µM each time.
`CN(C)CCNC(=O)c1cccc2c1nc(-c1ccncc1)c1ccccc12`: the TGI in the assay with EKVX NSCLC is 10 µM; in the assay with SK-OV-3 ovarian, 24.7 µM; in the assay on SF-295 CNS it was 15.9 µM; with HCT-15 colon, 13.4 µM; with SNB-19 CNS, 27.2 µM; in the assay on 786-0 renal, 17.8 µM. The same compound gave a TGI in the assay on HOP-62 NSCLC of 19.5 µM.
In the case of `Nc1cc(N)c2nc(-c3ccccc3)c(NCc3ccc(Cl)c(Cl)c3)nc2c1`, the GI50 in the assay on EKVX NSCLC is 10.9 µM; with SK-OV-3 ovarian, 18.5 µM; in the assay with SF-295 CNS, 15.5 µM; with MCF7 breast it was 12.4 µM; with HCT-15 colon it was 4.64 µM; with SNB-19 CNS, 22.5 µM. In addition, the values for the GI50 in the assay with 786-0 renal, in the assay on HOP-62 NSCLC and in the assay on SR leukemia were 13.1 µM, 15.7 µM and 1.63 µM, respectively. In addition, the TGI in the assay with EKVX NSCLC was 38.7 µM; with SK-OV-3 ovarian, 35.9 µM; in the assay on SF-295 CNS it was 37.2 µM; in the assay on MCF7 breast, 54.3 µM; in the assay on HCT-15 colon, more than 100 µM; with SNB-19 CNS, 50.8 µM. The TGI is 30.4 µM in the assay on 786-0 renal, 31.9 µM in the assay on HOP-62 NSCLC and 5.97 µM with SR leukemia.
With `CC[P+]1(c2ccccc2)CCCCC1`, the TGI in the assay with EKVX NSCLC, in the assay on SK-OV-3 ovarian, in the assay with SF-295 CNS, in the assay with HCT-15 colon, with SNB-19 CNS and with 786-0 renal was more than 100 µM each time. Moreover, the TGI in the assay with HOP-62 NSCLC and with SR leukemia was more than 100 µM throughout.
`O=C(OCc1ccccc1)n1cccc1`: the TGI in the assay on EKVX NSCLC, in the assay on SK-OV-3 ovarian, in the assay with SF-295 CNS, with SNB-19 CNS, with 786-0 renal and in the assay on HOP-62 NSCLC was more than 100 µM throughout. The TGI with SR leukemia is more than 100 µM.
As for `Oc1ccc(/C=N/NC(=S)Nc2cccnc2)nc1`, the TGI is more than 100 µM with EKVX NSCLC; more than 100 µM in the assay on SK-OV-3 ovarian; more than 75.6 µM in the assay on SF-295 CNS; more than 39 µM in the assay with MCF7 breast; more than 100 µM with HCT-15 colon; more than 100 µM in the assay on SNB-19 CNS. In addition, the results for the TGI with 786-0 renal, with HOP-62 NSCLC and in the assay on SR leukemia were more than 73.5 µM, more than 100 µM and 0.807 µM, respectively.
Consider `O=C1CCc2ccc(O)c(c2)Oc2ccc(cc2)[C@@H]2O[C@@H]2CO1`, for which the TGI in the assay on EKVX NSCLC, with SK-OV-3 ovarian, in the assay on SF-295 CNS, in the assay with SNB-19 CNS, with 786-0 renal and in the assay with HOP-62 NSCLC was more than 100 µM in each case. In the assay with SR leukemia, the TGI was more than 100 µM.
